PubChem BioAssay (NCI)
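96-well plates; 48 h exposure; 5 concentrations. Endpoints by linear interpolation between flanking doses. Not reached: highest tested concentration assigned. The concentration for full growth arrest is given as TGI.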

Legend:
Assay in all cases: inhibition of tumour cell growth, NCI panel, 48 h
786-0 renal = test system: 786-0 renal
A498 renal = test system: A498 renal
A549 NSCLC = test system: A549 NSCLC
ACHN renal = test system: ACHN renal
BT-549 breast = test system: BT-549 breast
CAKI-1 renal = test system: CAKI-1 renal
COLO 205 colon = test system: COLO 205 colon
DU-145 prostate = test system: DU-145 prostate
EKVX NSCLC = test system: EKVX NSCLC
HCT-116 colon = test system: HCT-116 colon
HCT-15 colon = test system: HCT-15 colon
HL-60(TB) leukemia = test system: HL-60(TB) leukemia
HOP-62 NSCLC = test system: HOP-62 NSCLC
HOP-92 NSCLC = test system: HOP-92 NSCLC
HS 578T breast = test system: HS 578T breast
HT29 colon = test system: HT29 colon
IGROV1 ovarian = test system: IGROV1 ovarian
KM12 colon = test system: KM12 colon
LOX IMVI melanoma = test system: LOX IMVI melanoma
M14 melanoma = test system: M14 melanoma
MALME-3M melanoma = test system: MALME-3M melanoma
MCF7 breast = test system: MCF7 breast
MDA-MB-231 breast = test system: MDA-MB-231 breast
MDA-MB-435 = test system: MDA-MB-435
MDA-N = test system: MDA-N
MOLT-4 leukemia = test system: MOLT-4 leukemia
NCI-H226 lung = test system: NCI-H226 lung
NCI-H23 lung = test system: NCI-H23 lung
NCI-H522 lung = test system: NCI-H522 lung
NCI/ADR-RES ovarian = test system: NCI/ADR-RES ovarian
OVCAR-3 ovarian = test system: OVCAR-3 ovarian
OVCAR-4 ovarian = test system: OVCAR-4 ovarian
OVCAR-5 ovarian = test system: OVCAR-5 ovarian
OVCAR-8 ovarian = test system: OVCAR-8 ovarian
PC-3 prostate = test system: PC-3 prostate
RPMI-8226 leukemia = test system: RPMI-8226 leukemia
SF-268 CNS = test system: SF-268 CNS
SF-295 CNS = test system: SF-295 CNS
SF-539 CNS = test system: SF-539 CNS
SK-MEL-2 melanoma = test system: SK-MEL-2 melanoma
SK-MEL-28 melanoma = test system: SK-MEL-28 melanoma
SK-MEL-5 melanoma = test system: SK-MEL-5 melanoma
SK-OV-3 ovarian = test system: SK-OV-3 ovarian
SN12C renal = test system: SN12C renal
SNB-19 CNS = test system: SNB-19 CNS
SR leukemia = test system: SR leukemia
SW-620 colon = test system: SW-620 colon
T-47D breast = test system: T-47D breast
TK-10 renal = test system: TK-10 renal
U251 CNS = test system: U251 CNS
UACC-257 melanoma = test system: UACC-257 melanoma
UACC-62 melanoma = test system: UACC-62 melanoma
UO-31 renal = test system: UO-31 renal
CCRF-CEM leukemia = test system: CCRF-CEM leukemia
HCC-2998 colon = test system: HCC-2998 colon
K-562 leukemia = test system: K-562 leukemia
NCI-H460 lung = test system: NCI-H460 lung
RXF 393 renal = test system: RXF 393 renal

Structure (SMILES): CN1CC[C@]23c4c5ccc(O)c4O[C@H]2C(O)CC[C@@]3(O)[C@H]1C5 (some centres not stated)
- TGI (786-0 renal): > 100 µM
- TGI (A498 renal): > 100 µM
- TGI (A549 NSCLC): > 100 µM
- TGI (ACHN renal): > 100 µM
- TGI (BT-549 breast): > 100 µM
- TGI (CAKI-1 renal): > 100 µM
- TGI (COLO 205 colon): > 100 µM
- TGI (DU-145 prostate): > 100 µM
- TGI (EKVX NSCLC): > 100 µM
- TGI (HCT-116 colon): > 100 µM
- TGI (HCT-15 colon): > 100 µM
- TGI (HL-60(TB) leukemia): > 100 µM
- TGI (HOP-62 NSCLC): > 100 µM
- TGI (HOP-92 NSCLC): > 100 µM
- TGI (HS 578T breast): > 100 µM
- TGI (HT29 colon): > 100 µM
- TGI (IGROV1 ovarian): > 100 µM
- TGI (KM12 colon): > 100 µM
- TGI (LOX IMVI melanoma): > 100 µM
- TGI (M14 melanoma): > 100 µM
- TGI (MALME-3M melanoma): > 100 µM
- TGI (MCF7 breast): > 100 µM
- TGI (MDA-MB-231 breast): > 100 µM
- TGI (MDA-MB-435): > 100 µM
- TGI (MDA-N): > 100 µM
- TGI (MOLT-4 leukemia): > 100 µM
- TGI (NCI-H226 lung): > 100 µM
- TGI (NCI-H23 lung): > 100 µM
- TGI (NCI-H522 lung): > 100 µM
- TGI (NCI/ADR-RES ovarian): > 100 µM
- TGI (OVCAR-3 ovarian): > 100 µM
- TGI (OVCAR-4 ovarian): > 100 µM
- TGI (OVCAR-5 ovarian): > 100 µM
- TGI (OVCAR-8 ovarian): > 100 µM
- TGI (PC-3 prostate): > 100 µM
- TGI (RPMI-8226 leukemia): > 100 µM
- TGI (SF-268 CNS): > 100 µM
- TGI (SF-295 CNS): > 100 µM
- TGI (SF-539 CNS): > 100 µM
- TGI (SK-MEL-2 melanoma): > 100 µM
- TGI (SK-MEL-28 melanoma): > 100 µM
- TGI (SK-MEL-5 melanoma): > 100 µM
- TGI (SK-OV-3 ovarian): > 100 µM
- TGI (SN12C renal): > 100 µM
- TGI (SNB-19 CNS): > 100 µM
- TGI (SR leukemia): > 100 µM
- TGI (SW-620 colon): > 100 µM
- TGI (T-47D breast): > 100 µM
- TGI (TK-10 renal): > 100 µM
- TGI (U251 CNS): > 100 µM
- TGI (UACC-257 melanoma): > 100 µM
- TGI (UACC-62 melanoma): > 100 µM
- TGI (UO-31 renal): > 100 µM

Structure (SMILES): CC(=O)OCCCC(NC(=O)OC(C)(C)C)C(=O)NC(CCCOC(C)=O)C(=O)NC(Cc1ccc([N+](=O)[O-])cc1)C(=O)NCC(=O)OCc1ccccc1 (configuration not stated)
- TGI (786-0 renal): 31.9 µM
- TGI (A549 NSCLC): 38.8 µM
- TGI (ACHN renal): 31.5 µM
- TGI (BT-549 breast): 32.6 µM
- TGI (CAKI-1 renal): 34.5 µM
- TGI (CCRF-CEM leukemia): > 100 µM
- TGI (COLO 205 colon): 31.4 µM
- TGI (DU-145 prostate): 32.7 µM
- TGI (EKVX NSCLC): 33.3 µM
- TGI (HCC-2998 colon): 33.4 µM
- TGI (HCT-116 colon): 32.4 µM
- TGI (HCT-15 colon): 30.2 µM
- TGI (HL-60(TB) leukemia): 19.5 µM
- TGI (HOP-62 NSCLC): 34.8 µM
- TGI (HOP-92 NSCLC): 42.1 µM
- TGI (HS 578T breast): 32.8 µM
- TGI (HT29 colon): 31.9 µM
- TGI (IGROV1 ovarian): 34 µM
- TGI (K-562 leukemia): 96 µM
- TGI (KM12 colon): 29 µM
- TGI (LOX IMVI melanoma): 25.9 µM
- TGI (M14 melanoma): 25.6 µM
- TGI (MALME-3M melanoma): 34.4 µM
- TGI (MCF7 breast): 32.2 µM
- TGI (MDA-MB-231 breast): 27.3 µM
- TGI (MDA-MB-435): 31.1 µM
- TGI (MDA-N): 28.6 µM
- TGI (MOLT-4 leukemia): > 100 µM
- TGI (NCI-H226 lung): 31.3 µM
- TGI (NCI-H23 lung): 27.3 µM
- TGI (NCI-H460 lung): 29.5 µM
- TGI (NCI-H522 lung): 32.3 µM
- TGI (NCI/ADR-RES ovarian): 41.8 µM
- TGI (OVCAR-3 ovarian): 30.1 µM
- TGI (OVCAR-4 ovarian): 28.8 µM
- TGI (OVCAR-5 ovarian): 31.4 µM
- TGI (OVCAR-8 ovarian): 31 µM
- TGI (PC-3 prostate): 30.9 µM
- TGI (RPMI-8226 leukemia): 44.6 µM
- TGI (RXF 393 renal): 31.1 µM
- TGI (SF-268 CNS): 35.6 µM
- TGI (SF-295 CNS): 24.4 µM
- TGI (SF-539 CNS): 28.9 µM
- TGI (SK-MEL-2 melanoma): 29.1 µM
- TGI (SK-MEL-28 melanoma): 31.9 µM
- TGI (SK-MEL-5 melanoma): 30.1 µM
- TGI (SK-OV-3 ovarian): 57.6 µM
- TGI (SN12C renal): 31.6 µM
- TGI (SNB-19 CNS): 32.9 µM
- TGI (SR leukemia): 44.6 µM
- TGI (SW-620 colon): 31.1 µM
- TGI (T-47D breast): 33.5 µM
- TGI (TK-10 renal): 43.3 µM
- TGI (U251 CNS): 32.8 µM
- TGI (UACC-257 melanoma): 28.6 µM
- TGI (UACC-62 melanoma): 29 µM
- TGI (UO-31 renal): 30 µM

Structure (SMILES): COc1cc(C(=O)/C=C/c2ccc(OCC#N)cc2)cc(OC)c1OC
- TGI (786-0 renal): 37.9 µM
- TGI (A498 renal): 65.9 µM
- TGI (A549 NSCLC): 50.9 µM
- TGI (ACHN renal): 51.8 µM
- TGI (BT-549 breast): 32 µM
- TGI (CAKI-1 renal): 69.6 µM
- TGI (CCRF-CEM leukemia): 65.1 µM
- TGI (COLO 205 colon): 39.5 µM
- TGI (DU-145 prostate): 79.8 µM
- TGI (EKVX NSCLC): > 100 µM
- TGI (HCC-2998 colon): 30.6 µM
- TGI (HCT-116 colon): 26.9 µM
- TGI (HCT-15 colon): 40.3 µM
- TGI (HOP-62 NSCLC): 58.6 µM
- TGI (HOP-92 NSCLC): 35.9 µM
- TGI (HS 578T breast): > 100 µM
- TGI (HT29 colon): > 100 µM
- TGI (IGROV1 ovarian): > 100 µM
- TGI (K-562 leukemia): 86.9 µM
- TGI (KM12 colon): 32 µM
- TGI (MALME-3M melanoma): 33 µM
- TGI (MCF7 breast): 23.3 µM
- TGI (MDA-MB-435): 40.2 µM
- TGI (MDA-N): > 100 µM
- TGI (MOLT-4 leukemia): 90.7 µM
- TGI (NCI-H226 lung): 58.5 µM
- TGI (NCI-H23 lung): 43.2 µM
- TGI (NCI-H460 lung): 80.9 µM
- TGI (NCI-H522 lung): 35.9 µM
- TGI (NCI/ADR-RES ovarian): 48.3 µM
- TGI (OVCAR-3 ovarian): 59.5 µM
- TGI (OVCAR-4 ovarian): > 100 µM
- TGI (OVCAR-5 ovarian): > 100 µM
- TGI (OVCAR-8 ovarian): > 100 µM
- TGI (PC-3 prostate): 38 µM
- TGI (RXF 393 renal): 34.1 µM
- TGI (SF-268 CNS): > 100 µM
- TGI (SF-295 CNS): > 100 µM
- TGI (SF-539 CNS): 33.2 µM
- TGI (SK-MEL-28 melanoma): 32 µM
- TGI (SK-MEL-5 melanoma): 25.9 µM
- TGI (SK-OV-3 ovarian): > 100 µM
- TGI (SN12C renal): 36.3 µM
- TGI (SNB-19 CNS): 54.4 µM
- TGI (SR leukemia): 55.4 µM
- TGI (SW-620 colon): 37.3 µM
- TGI (T-47D breast): 36.5 µM
- TGI (TK-10 renal): 70.1 µM
- TGI (U251 CNS): 33.4 µM
- TGI (UACC-257 melanoma): > 100 µM
- TGI (UACC-62 melanoma): 48.5 µM
- TGI (UO-31 renal): 31.4 µM
